US6914045B2, “Glycopeptide antibiotics” (Wyeth Holdings Corporation, priority 2001, dated 2005)
Read-outs that look alike come from different tables or passages of the source.

Key:
Assay in all cases: in vitro antibacterial evaluation, MIC by broth dilution
Format in all cases: cell-based
Streptococcus sp. = system: Streptococcus sp.
Description: (§1) Methods for in vitro Antibacterial Evaluation (Table 1)
(§2) The minimum inhibitory concentration (MIC), the lowest concentration of the antibiotic which inhibits growth of the test organism, is determined by the broth dilution method using Muller-Hinton II […] (Baltimore Biological Laboratories) following the recommendations of the National Committee for Clinical Laboratory Standards [Methods for dilution antimicrobial susceptibility tests for bacteria that grow aerobically, approved standard M7-A2, National Committee for Clinical Laboratory Standards, Villanova, Pa.].
(§3) An inoculum level of 5×10^5 CFU/mL, and a range of antibiotic concentrations (64-0.06 μg/mL) is used. […] The test organisms include a spectrum of Gram-positive bacteria comprised of Staphylococcus sp., Streptococcus sp. and Enterococcus sp. These organisms include recent clinical isolates that are resistant to methicillin, penicillin and/or vancomycin.

Enterococcus sp. = system: Enterococcus sp.
Description: as §1, §2, §3

Staphylococcus sp. = system: Staphylococcus sp.
Description: as §1, §2, §3

Escherichia coli = system: Escherichia coli
How it was run: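 MIC is the lowest antibiotic concentration (tested 64-0.06 μg/mL) preventing growth of a 5×10^5 CFU/mL inoculum. Determined by broth dilution in Mueller-Hinton II medium following NCCLS standard M7-A2.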

[1] = strain ATCC 6301, broth dilution, 18 hours at 35° C.
[2] = strain GC 1894, broth dilution, 18 hours at 35° C.
[3] = strain GC 4563, broth dilution, 18 hours at 35° C.
[4] = strain GC 4564, broth dilution, 18 hours at 35° C.
[5] = strain GC 4565, broth dilution, 18 hours at 35° C.
[6] = strain ATCC 29212, broth dilution, 18 hours at 35° C.
[7] = strain GC 2242, broth dilution, 18 hours at 35° C.
[8] = strain GC 2243, broth dilution, 18 hours at 35° C.
[9] = strain GC 2691, broth dilution, 18 hours at 35° C.
[10] = strain GC 3059, broth dilution, 18 hours at 35° C.
[11] = strain GC 4552, broth dilution, 18 hours at 35° C.
[12] = strain GC 4553, broth dilution, 18 hours at 35° C.
[13] = strain GC 4554, broth dilution, 18 hours at 35° C.
[14] = strain GC 4556, broth dilution, 18 hours at 35° C.
[15] = strain GC 4557, broth dilution, 18 hours at 35° C.
[16] = strain GC 4558, broth dilution, 18 hours at 35° C.
[17] = strain GC 6189, broth dilution, 18 hours at 35° C.
[18] = strain ATCC 29213, broth dilution, 18 hours at 35° C.
[19] = strain GC 1131, broth dilution, 18 hours at 35° C.
[20] = strain GC 3051, broth dilution, 18 hours at 35° C.
[21] = strain GC 3053, broth dilution, 18 hours at 35° C.
[22] = strain GC 4541, broth dilution, 18 hours at 35° C.
[23] = strain GC 4542, broth dilution, 18 hours at 35° C.
[24] = strain GC 4543, broth dilution, 18 hours at 35° C.
[25] = strain GC 4544, broth dilution, 18 hours at 35° C.
[26] = strain GC 4545, broth dilution, 18 hours at 35° C.
[27] = strain GC 4546, broth dilution, 18 hours at 35° C.
[28] = strain GC 4547, broth dilution, 18 hours at 35° C.
[29] = strain GC 4548, broth dilution, 18 hours at 35° C.
[30] = strain GC 4549, broth dilution, 18 hours at 35° C.
[31] = strain GC 4551, broth dilution, 18 hours at 35° C.
[32] = strain GC 6257, broth dilution, 18 hours at 35° C.
[33] = strain ATCC 25922, broth dilution, 18 hours at 35° C.
[34] = strain GC 4559, broth dilution, 18 hours at 35° C.
[35] = strain GC 4560, broth dilution, 18 hours at 35° C.

COc1ccc(Oc2cccc(-c3nc4cc(CC5NC(=O)C(C(C)c6ccccc6)NC(=O)CNC(=O)C(CO)NC(=O)C(C(O)C6CNC(=N)N6C6OC(CO)C(O)C(O)C6O)NC(=O)C(C(O)C6CNC(=N)N6)NC5=O)ccc4o3)c2)cc1 (stereo not drawn) [Example 35, Cyclo[3-[2-[3-(4-methoxyphenoxy)phenyl]-1,3-benzoxazol-5-yl]alanyl-3-(2-iminoimidazolidin-4-yl)seryl-3-(3-hexopyranosyl-2-iminoimidazolidin-4-yl)serylserylglycyl-β-methylphenyl-alanyl]]
>128 µg/mL: MIC Escherichia coli (ATCC 25922) (Escherichia coli; [33]) | MIC Escherichia coli (GC 4559) (Escherichia coli; [34])
2 µg/mL: MIC Streptococcus pyogenes (GC 4563) (Streptococcus sp.; [3]) | MIC Coagulase Negative Staphylococcus (GC 6257) (Staphylococcus sp.; [32])
32 µg/mL: MIC Enterococcus faecalis (GC 3059) (Enterococcus sp.; [10]) | MIC Enterococcus faecalis (GC 4552) (Enterococcus sp.; [11]) | MIC Enterococcus faecalis (GC 4554) (Enterococcus sp.; [13]) | MIC Enterococcus faecium (GC 4556) (Enterococcus sp.; [14])
16 µg/mL: MIC Streptococcus pneumoniae (GC 4565) (Streptococcus sp.; [5]) | MIC Enterococcus faecalis (ATCC 29212) (Enterococcus sp.; [6]) | MIC Enterococcus faecalis (GC 2242) (Enterococcus sp.; [7]) | MIC Enterococcus faecalis (GC 2691) (Enterococcus sp.; [9]) | MIC Enterococcus faecalis (GC 6189) (Enterococcus sp.; [17]) | MIC Escherichia coli (GC 4560) (Escherichia coli; [35])
4 µg/mL: MIC Enterococcus faecium (GC 4557) (Enterococcus sp.; [15])
8 µg/mL: MIC Streptococcus pneumoniae (ATCC 6301) (Streptococcus sp.; [1]) | MIC Streptococcus pneumoniae (GC 1894) (Streptococcus sp.; [2]) | MIC Streptococcus agalactiae (GC 4564) (Streptococcus sp.; [4]) | MIC Enterococcus faecium (GC 2243) (Enterococcus sp.; [8]) | MIC Enterococcus faecalis (GC 4553) (Enterococcus sp.; [12]) | MIC Enterococcus avium (GC 4558) (Enterococcus sp.; [16]) | MIC Staphylococcus aureus (ATCC 29213) (Staphylococcus sp.; [18]) | MIC Staphylococcus aureus (GC 1131) (Staphylococcus sp.; [19]) | MIC Staphylococcus aureus (GC 3051) (Staphylococcus sp.; [20]) | MIC Staphylococcus aureus (GC 3053) (Staphylococcus sp.; [21]) | MIC Staphylococcus aureus (GC 4541) (Staphylococcus sp.; [22]) | MIC Staphylococcus aureus (GC 4542) (Staphylococcus sp.; [23]) | MIC Staphylococcus aureus-SMITH (GC 4543) (Staphylococcus sp.; [24]) | MIC Staphylococcus aureus (GC 4544) (Staphylococcus sp.; [25]) | MIC Staphylococcus aureus (GC 4545) (Staphylococcus sp.; [26]) | MIC Staphylococcus haemolyticus (GC 4546) (Staphylococcus sp.; [27]) | MIC Coagulase Negative Staphylococcus (GC 4547) (Staphylococcus sp.; [28]) | MIC Coagulase Negative Staphylococcus (GC 4548) (Staphylococcus sp.; [29]) | MIC Coagulase Negative Staphylococcus (GC 4549) (Staphylococcus sp.; [30]) | MIC Coagulase Negative Staphylococcus (GC 4551) (Staphylococcus sp.; [31])

CC(c1ccccc1)C1NC(=O)CNC(=O)C(CO)NC(=O)C(C(O)C2CNC(=N)N2C2OC(CO)C(O)C(O)C2O)NC(=O)C(C(O)C2CNC(=N)N2)NC(=O)C(Cc2ccc3oc(-c4ccccc4OC4OC(CO)C(O)C(O)C4O)nc3c2)NC1=O (stereo not drawn) [Example 36, Cyclo[3-[2-[2-(hexopyranosyloxy)phenyl]-1,3-benzoxazol-5-yl]alanyl-3-(2-iminoimidazolidin-4-yl)seryl-3-(3-hexopyranosyl-2-iminoimidazolidin-4-yl)serylserylglycyl-β-methyl-phenylalanyl]]
>128 µg/mL: MIC Streptococcus pneumoniae (ATCC 6301) (Streptococcus sp.; [1]) | MIC Streptococcus agalactiae (GC 4564) (Streptococcus sp.; [4]) | MIC Streptococcus pneumoniae (GC 4565) (Streptococcus sp.; [5]) | MIC Enterococcus faecalis (ATCC 29212) (Enterococcus sp.; [6]) | MIC Enterococcus faecalis (GC 2242) (Enterococcus sp.; [7]) | MIC Enterococcus faecium (GC 2243) (Enterococcus sp.; [8]) | MIC Enterococcus faecalis (GC 2691) (Enterococcus sp.; [9]) | MIC Enterococcus faecalis (GC 3059) (Enterococcus sp.; [10]) | MIC Enterococcus faecalis (GC 4552) (Enterococcus sp.; [11]) | MIC Enterococcus faecalis (GC 4554) (Enterococcus sp.; [13]) | MIC Enterococcus faecium (GC 4556) (Enterococcus sp.; [14]) | MIC Enterococcus faecalis (GC 6189) (Enterococcus sp.; [17]) | MIC Staphylococcus aureus (ATCC 29213) (Staphylococcus sp.; [18]) | MIC Staphylococcus aureus (GC 1131) (Staphylococcus sp.; [19]) | MIC Staphylococcus aureus (GC 3051) (Staphylococcus sp.; [20]) | MIC Staphylococcus aureus (GC 3053) (Staphylococcus sp.; [21]) | MIC Staphylococcus aureus (GC 4541) (Staphylococcus sp.; [22]) | MIC Staphylococcus aureus (GC 4542) (Staphylococcus sp.; [23]) | MIC Staphylococcus aureus-SMITH (GC 4543) (Staphylococcus sp.; [24]) | MIC Staphylococcus aureus (GC 4544) (Staphylococcus sp.; [25]) | MIC Staphylococcus aureus (GC 4545) (Staphylococcus sp.; [26]) | MIC Coagulase Negative Staphylococcus (GC 4551) (Staphylococcus sp.; [31]) | MIC Escherichia coli (ATCC 25922) (Escherichia coli; [33])
128 µg/mL: MIC Streptococcus pneumoniae (GC 1894) (Streptococcus sp.; [2]) | MIC Streptococcus pyogenes (GC 4563) (Streptococcus sp.; [3]) | MIC Enterococcus faecalis (GC 4553) (Enterococcus sp.; [12]) | MIC Enterococcus faecium (GC 4557) (Enterococcus sp.; [15]) | MIC Enterococcus avium (GC 4558) (Enterococcus sp.; [16]) | MIC Coagulase Negative Staphylococcus (GC 4548) (Staphylococcus sp.; [29]) | MIC Escherichia coli (GC 4559) (Escherichia coli; [34])
64 µg/mL: MIC Staphylococcus haemolyticus (GC 4546) (Staphylococcus sp.; [27]) | MIC Coagulase Negative Staphylococcus (GC 4547) (Staphylococcus sp.; [28]) | MIC Coagulase Negative Staphylococcus (GC 4549) (Staphylococcus sp.; [30]) | MIC Coagulase Negative Staphylococcus (GC 6257) (Staphylococcus sp.; [32]) | MIC Escherichia coli (GC 4560) (Escherichia coli; [35])

CC(c1ccccc1)C1NC(=O)CNC(=O)C(CO)NC(=O)C(C(O)C2CNC(=N)N2C2OC(CO)C(O)C(O)C2O)NC(=O)C(C(O)C2CNC(=N)N2)NC(=O)C(Cc2ccc3oc(-c4ccc5c(c4)Cc4ccccc4-5)nc3c2)NC1=O (stereo not drawn) [Example 37, Cyclo[3-[2-(9H-fluoren-2-yl)-1,3-benzoxazol-5-yl]alanyl-3-(2-iminoimidazolidin-4-yl)seryl-3-(3-hexopyranosyl-2-iminoimidazolidin-4-yl)serylserylglycyl-β-methylphenylalanyl]]
8 µg/mL: MIC Enterococcus avium (GC 4558) (Enterococcus sp.) | MIC Enterococcus faecium (GC 2243) (Enterococcus sp.) | MIC Coagulase Negative Staphylococcus (GC 4548) (Staphylococcus sp.) | MIC Coagulase Negative Staphylococcus (GC 4549) (Staphylococcus sp.) | MIC Coagulase Negative Staphylococcus (GC 4551) (Staphylococcus sp.) | MIC Staphylococcus aureus (GC 1131) (Staphylococcus sp.) | MIC Staphylococcus aureus (GC 3051) (Staphylococcus sp.) | MIC Staphylococcus aureus (GC 3053) (Staphylococcus sp.) | MIC Staphylococcus aureus (GC 4541) (Staphylococcus sp.) | MIC Staphylococcus aureus (GC 4542) (Staphylococcus sp.) | MIC Staphylococcus aureus (GC 4544) (Staphylococcus sp.) | MIC Staphylococcus aureus-SMITH (GC 4543) (Staphylococcus sp.) | MIC Staphylococcus haemolyticus (GC 4546) (Staphylococcus sp.)
128 µg/mL: MIC Escherichia coli (ATCC 25922) (Escherichia coli)
16 µg/mL: MIC Streptococcus agalactiae (GC 4564) (Streptococcus sp.) | MIC Streptococcus pneumoniae (GC 1894) (Streptococcus sp.) | MIC Streptococcus pneumoniae (GC 4565) (Streptococcus sp.) | MIC Enterococcus faecalis (ATCC 29212) (Enterococcus sp.) | MIC Enterococcus faecalis (GC 2242) (Enterococcus sp.) | MIC Enterococcus faecalis (GC 2691) (Enterococcus sp.) | MIC Enterococcus faecalis (GC 3059) (Enterococcus sp.) | MIC Enterococcus faecalis (GC 4552) (Enterococcus sp.) | MIC Enterococcus faecalis (GC 4554) (Enterococcus sp.) | MIC Enterococcus faecalis (GC 6189) (Enterococcus sp.) | MIC Enterococcus faecium (GC 4556) (Enterococcus sp.) | MIC Coagulase Negative Staphylococcus (GC 4547) (Staphylococcus sp.) | MIC Staphylococcus aureus (ATCC 29213) (Staphylococcus sp.) | MIC Staphylococcus aureus (GC 4545) (Staphylococcus sp.)
>128 µg/mL: MIC Escherichia coli (GC 4559) (Escherichia coli)
32 µg/mL: MIC Streptococcus pneumoniae (ATCC 6301) (Streptococcus sp.)
4 µg/mL: MIC Streptococcus pyogenes (GC 4563) (Streptococcus sp.) | MIC Enterococcus faecalis (GC 4553) (Enterococcus sp.) | MIC Enterococcus faecium (GC 4557) (Enterococcus sp.) | MIC Coagulase Negative Staphylococcus (GC 6257) (Staphylococcus sp.) | MIC Escherichia coli (GC 4560) (Escherichia coli)
